Experimental data from patent publication US20120184536A1, “COMPOSITIONS COMPRISING SPECIFIC UGT INHIBITORS AND METHODS OF USE THEREOF” (The Board of Trustees of the University of Arkansas, priority 2009, published 2012).
Read-outs that look alike come from different tables or passages of the source.

Assays:
UGT1A10 [1] = target: T1, UGT1A10 (Homo sapiens, UniProt Q9HAW8); type: biochemical; design: His; made in house; host or cells: baculovirus-infected Sf9 insect cells
T1 sequence (Q9HAW8 26-530): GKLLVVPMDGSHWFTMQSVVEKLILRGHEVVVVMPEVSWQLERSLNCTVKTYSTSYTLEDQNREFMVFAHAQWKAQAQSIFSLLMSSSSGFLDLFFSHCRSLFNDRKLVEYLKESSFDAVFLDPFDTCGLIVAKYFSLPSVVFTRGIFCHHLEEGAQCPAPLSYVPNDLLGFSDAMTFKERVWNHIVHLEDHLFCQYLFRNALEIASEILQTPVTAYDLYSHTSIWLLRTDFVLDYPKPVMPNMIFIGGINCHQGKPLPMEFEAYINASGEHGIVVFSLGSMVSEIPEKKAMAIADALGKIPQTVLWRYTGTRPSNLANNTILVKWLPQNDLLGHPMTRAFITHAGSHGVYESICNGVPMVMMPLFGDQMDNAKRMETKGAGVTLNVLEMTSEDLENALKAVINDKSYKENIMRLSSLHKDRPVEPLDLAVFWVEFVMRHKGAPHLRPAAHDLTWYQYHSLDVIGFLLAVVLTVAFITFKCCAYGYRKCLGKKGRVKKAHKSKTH

UGT2B7 [2] = target: T2, UGT2B7 (Homo sapiens, UniProt P16662); assay: Ki assays / kinetics and inhibition type, UGT2B7 (Example 1); settings: UGT2B7
T2 sequence (P16662 24-529): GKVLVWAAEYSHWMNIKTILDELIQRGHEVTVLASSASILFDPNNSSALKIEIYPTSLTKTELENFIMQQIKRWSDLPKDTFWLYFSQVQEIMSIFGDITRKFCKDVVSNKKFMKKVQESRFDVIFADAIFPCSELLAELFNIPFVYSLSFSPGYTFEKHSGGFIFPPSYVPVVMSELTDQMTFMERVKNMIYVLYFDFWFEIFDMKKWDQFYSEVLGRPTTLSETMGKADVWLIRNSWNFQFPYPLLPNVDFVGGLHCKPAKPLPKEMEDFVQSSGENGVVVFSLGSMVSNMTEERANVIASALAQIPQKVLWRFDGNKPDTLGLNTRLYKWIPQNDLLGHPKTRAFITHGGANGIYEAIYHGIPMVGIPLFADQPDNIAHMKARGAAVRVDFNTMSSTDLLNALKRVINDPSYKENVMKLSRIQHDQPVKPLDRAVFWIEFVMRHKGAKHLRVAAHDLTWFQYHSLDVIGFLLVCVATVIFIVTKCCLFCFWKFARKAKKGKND
Description: (§1) Recombinant UGT Isoform Incubations—Recombinant human UGT2B7 was produced in HEK239 cells as previously described (6). UGT1A10 was produced as a His-tagged protein in baculovirus-infected Sf9 insect cells as previously described (7, 8). […] For inhibition assays, recombinant UGT membrane protein was incubated in reaction buffer with substrate, inhibitor, and co-substrate as previously described (6, 9).
(§2) Ki assays—UGT2B7 or 1A10 were incubated with a range of at least four different concentrations of inhibitor using varying concentrations of substrate (Ki(substrate)) with a fixed saturating concentration of cosubstrate or with varying concentrations of co-substrate (Ki(UDP-GlcUA)) and a fixed saturating concentration of substrate (FIG. 4).
(§3) The results of these experiments were analyzed and apparent kinetic and inhibition parameters were determined using Prism 4 software (GraphPad, San Diego, Calif.) and DynaFit (BioKin, Watertown, Mass.). TLC and HPLC Analysis—For inhibition assays using all substrates other than 7-OH-warfarin, aliquots (60 μl) of each incubation were analyzed using thin layer chromatography (TLC) as previously described (3). For inhibition assays using 7-OH-warfarin as a substrate, samples were analyzed using HPLC as described previously (10). Primary standards for the 7-OH-warfarin glucuronide were not available; therefore, product concentrations were estimated using the external standard response for the 7-OH-warfarin substrate.

UGT1A10 [3] = target: T1, UGT1A10; assay: IC50 assays, inhibition of UGT1A10 glucuronidation (Example 1); type: biochemical; design: His; made in house; host or cells: baculovirus-infected Sf9 insect cells
Description: Synthesis of inhibitors was described previously (2).

UGT2B7 [4] = target: T2, UGT2B7; assay: IC50 assays, inhibition of UGT2B7 glucuronidation (Example 1)
Description: Recombinant UGT Isoform Incubations—Recombinant human UGT2B7 was produced in HEK239 cells as previously described (6). […] For inhibition assays, recombinant UGT membrane protein was incubated in reaction buffer with substrate, inhibitor, and co-substrate as previously described (6, 9).
IC50 assays—UGT2B7 or 1A10 were incubated with fixed concentrations of each substrate and co-substrate and increasing concentrations of inhibitor.
as §3

UGT1A10 [5] = target: T1, UGT1A10; assay: Ki assays / kinetics and inhibition type, UGT1A10 (Example 2); settings: UGT1A10, Example 2; for Inhibition Type (UDP-GlcUA): UDP-GlcUA varied
Description: Recombinant UGT Isoform Incubations—Recombinant human UGT1A10 and it mutants were produced in baculovirus-infected insect cells as previously described (6, 7). Synthesis of inhibitors was described previously (2). For inhibition assays, UGT recombinant membrane protein (5 μg) was incubated in reaction buffer ([…] Tris-HCl (pH 7.4)/5 mM MgCl2/5 mM saccharolactone) and 2% DMSO with substrate, inhibitor and co-substrate, UDP-GlcUA, in a total volume of 30 μl. Substrates were added in DMSO, and controls were run with each assay. No additional detergents or other activators were used in the incubations. Reactions were started by the addition of co-substrate and incubated at 37° C. (90 min for 8-hydroxywarfarin; 30 min for 4-MU; 30 min for E2). […] Reactions were stopped by addition of 40 μl of ethanol, and all incubations were performed in duplicate.
TLC Analysis—For inhibition assays using 4-MU, E2, and 8-OH warfarin as substrates, aliquots (60 μl) of each sample were analyzed using thin layer chromatography (TLC) as described previously (3).
Each sample was centrifuged at 14,000 rpm for 8 min to spin down the protein, and 60 μl of the supernatant was analyzed by HPLC as described previously (8).

UGT1A10 [6] = target: T1, UGT1A10; assay: Ki assays / kinetics and inhibition type, UGT1A10 (Example 1); settings: for Inhibition Type (UDP-GlcUA): UDP-GlcUA varied
Description: as §1, §2, §3

In the case of `CCCCCCCCCC(=O)NC(COC(=O)NS(=O)(=O)OCC1OC(n2ccc(=O)[nH]c2=O)C(O)C1O)Cc1ccccc1` (stereo not drawn) [PP55B], the “extent of inhibition of UGT1A10 activity toward 7-OH warfarin” value (UGT1A10 [1]) is reported as “did not fully inhibition”, the “Inhibition Type (UDP-GlcUA)” value (UGT2B7 [2]; UDP-GlcUA varied, androsterone) is reported as “Mixed” and the “Inhibition Type (UDP-GlcUA)” value (UGT2B7 [2]; UDP-GlcUA varied, linoleic acid) is reported as “Competitive”. The “Inhibition Type (UDP-GlcUA)” value (UGT2B7 [2]; UDP-GlcUA varied, p-nitrophenol) was “Mixed”, the “Inhibition Type (Substrate)” value (UGT2B7 [2]; androsterone varied) was “Mixed” and the “Inhibition Type (Substrate)” value (UGT2B7 [2]; linoleic acid varied) was “Competitive”. The “Inhibition Type (Substrate)” value (UGT2B7 [2]; p-nitrophenol varied) was “Competitive”, the Ki (UGT2B7 [2]; read-out: Kiapp (Substrate), linoleic acid varied) was 4.2 µM and the Ki (UGT2B7 [2]; read-out: Kiapp (Substrate), p-nitrophenol varied) was 7.6 µM. For the same compound, the Ki (UGT2B7 [2]; read-out: Kiapp (UDP-GlcUA), UDP-GlcUA varied, linoleic acid) was 2.5 µM, the Ki (UGT2B7 [2]; read-out: Kiapp (UDP-GlcUA), UDP-GlcUA varied, p-nitrophenol) was 2.1 µM and the Ki (UGT2B7 [2]; read-out: Ki′app (UDP-GlcUA), UDP-GlcUA varied, p-nitrophenol) was 85 µM. It also gave an IC50 (UGT1A10 [3]; 4-MU, read-out: IC50 (Substrate)) of 8 ± 1 µM, an IC50 (UGT1A10 [3]; 7-OH warfarin, read-out: IC50 (Substrate)) of 11 ± 2 µM and an IC50 (UGT1A10 [3]; 8-OH warfarin, read-out: IC50 (Substrate)) of 35 ± 4 µM. The IC50 (UGT1A10 [3]; E2, estimation, some activation at low concentrations, read-out: IC50 (Substrate)) was ~200 µM, the IC50 (UGT1A10 [3]; co-substrate ~2 x Km, 4-MU in excess, read-out: IC50 (UDP-GlcUA)) was 15 ± 2 µM and the IC50 (UGT1A10 [3]; co-substrate ~2 x Km, 7-OH warfarin in excess, read-out: IC50 (UDP-GlcUA)) was 4.9 ± 0.2 µM. For the same compound, the IC50 (UGT1A10 [3]; co-substrate ~2 x Km, 8-OH warfarin in excess, read-out: IC50 (UDP-GlcUA)) was 14 ± 1 µM, the IC50 (UGT1A10 [3]; co-substrate ~2 x Km, E2 in excess, read-out: IC50 (UDP-GlcUA)) was 39 ± 11 µM and the IC50 (UGT2B7 [4]; read-out: IC50 (Substrate), linoleic acid ~2 x Km, co-substrate in >5 fold excess) was 14 µM. For the same compound, the IC50 (UGT2B7 [4]; read-out: IC50 (Substrate), p-nitrophenol (pNP) ~2 x Km, co-substrate in >5 fold excess) was 75 ± 10 µM, the “Inhibition Type (Substrate)” value (UGT1A10 [5]; 4-MU varied) was “Competitive” and the “Inhibition Type (Substrate)” value (UGT1A10 [5]; 7-OH warfarin varied) was “Competitive”. The “Inhibition Type (Substrate)” value (UGT1A10 [5]; 8-OH warfarin varied) was “Competitive”, the “Inhibition Type (UDP-GlcUA)” value (UGT1A10 [5]; 4-MU) was “Competitive” and the “Inhibition Type (UDP-GlcUA)” value (UGT1A10 [5]; 7-OH warfarin 3 mM) was “Mixed”. The “Inhibition Type (UDP-GlcUA)” value (UGT1A10 [5]; 8-OH warfarin) was “Competitive”, the “Inhibition Type (UDP-GlcUA)” value (UGT1A10 [5]; E2 1 mM) was “Mixed” and the “Inhibition Type (Substrate)” value (UGT1A10 [6]; 4-MU varied) was “noncompetitive and Non-”. The “Inhibition Type (Substrate)” value (UGT1A10 [6]; 7-OH warfarin varied) was “Competitive”, the “Inhibition Type (Substrate)” value (UGT1A10 [6]; 8-OH warfarin varied) was “Mixed” and the “Inhibition Type (Substrate)” value (UGT1A10 [6]; E2 varied) was “Mixed”. For the same compound, the “Inhibition Type (UDP-GlcUA)” value (UGT1A10 [6]; 4-MU) was “Competitive”, the “Inhibition Type (UDP-GlcUA)” value (UGT1A10 [6]; 7-OH warfarin) was “Competitive” and the “Inhibition Type (UDP-GlcUA)” value (UGT1A10 [6]; 8-OH warfarin) was “Competitive”. The “Inhibition Type (UDP-GlcUA)” value (UGT1A10 [6]; E2) was “Mixed”, the Ki (UGT1A10 [6]; read-out: Kiapp (Substrate), 4-MU varied) was 96 µM and the Ki (UGT1A10 [6]; read-out: Kiapp (Substrate), 7-OH warfarin varied) was 8.5 µM. It also gave a Ki (UGT1A10 [6]; read-out: Kiapp (Substrate), 8-OH warfarin varied) of 27 µM, a Ki (UGT1A10 [6]; read-out: Kiapp (Substrate), E2 varied) of 200 µM and a Ki (UGT1A10 [6]; read-out: Kiapp (UDP-GlcUA), UDP-GlcUA varied, 4-MU) of 5.7 µM. The Ki (UGT1A10 [6]; read-out: Kiapp (UDP-GlcUA), UDP-GlcUA varied, 7-OH warfarin) was 4.1 µM, the Ki (UGT1A10 [6]; read-out: Kiapp (UDP-GlcUA), UDP-GlcUA varied, 8-OH warfarin) was 26 µM and the Ki (UGT1A10 [6]; read-out: Kiapp (UDP-GlcUA), UDP-GlcUA varied, E2) was 6.9 µM. For the same compound, the Ki (UGT1A10 [6]; read-out: Ki′app (Substrate), 8-OH warfarin varied) was 136 µM, the Ki (UGT1A10 [6]; read-out: Ki′app (Substrate), E2 varied) was 43 µM and the Ki (UGT1A10 [6]; read-out: Ki′app (UDP-GlcUA), UDP-GlcUA varied, E2) was 23 µM.
